Drawing on US9668473B2, “Process for obtaining biopolymeric nanoparticles containing Azadirachta indica A. Juss. (neem.) oil and extracts, biopolymeric nanoparticles, and powder microparticles” (priority 2013, dated 2017), this text covers Azadirachtin solubility, storage stability and azadirachtin activity for one molecule.

Where two headings read alike, the source gives them in different places.

The nature of data set [1]: Azadirachtin solubility and dispersion capability in aqueous phase. The format is physicochemical. The source says:
This value represents an azadirachtin dispersion capability 13 times greater than its solubility. That is, it is possible to prepare a new formulation for applying Neem extracts and oil with high azadirachtin contents, whereas the surfactant content is kept low (Tween®80=0.5% m/v). It should be clear for those skilled in the art that this value represents a non-limiting example; greater dispersion capabilities are fairly possible according to the extract content used.

The format of data set [2] is physicochemical. The procedure: Reproducibility, Resistance, Recovery, and Storage Stability
Azadirachtin solutions stores at 4° C. were considered stable.

For data set [3] the following is noted: cited from earlier work.

`C/C=C(\C)C(=O)O[C@H]1C[C@@H](OC(C)=O)[C@@]2(C(=O)OC)CO[C@H]3[C@@H](O)[C@@](C)([C@]45O[C@@]4(C)[C@H]4C[C@@H]5O[C@@H]5OC=C[C@@]54O)[C@H]4[C@]1(CO[C@]4(O)C(=O)OC)[C@@H]32` [Azadirachtin, azadirachtin]: the Azadirachtin solubility in data set [1] is reported as 26.0 mg 100 mL^−1. Also, the storage stability result in data set [2] is recorded as “stable”. The azadirachtin activity in data set [3] (after 4 hours of sunlight exposure) is listed as roughly 60%; in data set [3] (after 15 hours of sunlight exposure), roughly 50%.
